The values below come from patent US20150307530A1, “NOVEL MUCOLYTIC AGENTS” (PARION SCIENCES, INC., priority 2012, published 2015).

One may read the half-life as the time needed for the level to fall by half in the phase considered. A higher half-life goes with slow loss.

The target of one data set is Muc5B (Homo sapiens, UniProt Q9HC84). Briefly: Mucin agarose gel western blot: Muc5B reduction in saliva. The note with it: 30 minute incubation, FIG. 4; for concentration producing Muc5B (mucin) reduction by downward gel shift: pH 6.5, agarose gel/western blot. For orientation: Mobility shift assays separate free from complexed probe on a gel.
Data set [1] in a line: DTNB assay: rate of disulfide bond reduction. The data set is classed as biochemical. As to conditions: for DTNB reducing kinetics as a function of pH: pH range relevant for mucosal surfaces (pH 6.0-7.5); for DTNB reducing kinetics as a function of pH / reducing kinetic for DTNB reduction compared with NAC and DTT: FIG. 3; for reducing kinetic for DTNB reduction compared with NAC and DTT: comparison with thiol reducing agents. The text has this: FIG. 2. Spectrophotometric studies monitored formation of reduced DTNB over time. Reaction rates, generated using second order kinetics, for each compound were compared as a function of reducing agent to substrate (DTNB) concentration at pH 6.5.
FIG. 3. Spectrophotometric studies monitored formation of reduced DTNB over time. Reaction rates, generated using second order kinetics, for each compound were over a pH range relevant for mucosal surfaces.
Mucin Agarose Gel Western Blots: Reducing agent stock solutions are made up in 100 mM Potassium Phosphate and are buffered to pH 6.5. The reducing agent stocks are diluted into saliva samples (pH 6.5) to achieve the final desired reducing agent concentration. […] The reactions are quenched using at least a 2-fold excess of N-ethylmaleimide and/or hydrogen peroxide. A 5× concentrated sample loading buffer is diluted into the samples to achieve a 1× concentration (1×TAE, 5% glycerol, 0.1% SDS, Bromophenol Blue). Samples (50 ug) are analyzed by electrophoresis on 0.9% agarose gels using a buffer system consisting of 1×TAE/0.1% SDS. […] Unreduced and reduced Muc5B are visualized using a polyclonal antibody directed towards Muc5B and a Protoblot II AP System with stabilized substrate. […] Each compound solution (10 uL) is added apically to primary hBEs for 6 hrs. The hBEs are lysed in RIPA buffer supplemented with protease inhibitor cocktail (Roche) and 1 mM PMSF. The samples are normalized to contain the same total amount of protein followed by addition of 2×SDS sample buffer (100 mM Tris-HCl (pH6.8)/4% SDS/0.05% Bromophenol Blue/20% glycerol). Samples (20 […]g) are analyzed by electrophoresis on a 10% SDS-PAGE gel and transferred to a nitrocellulose membrane. BiP levels are visualized using a polyclonal antibody directed towards BiP and the LiCor Odyssey imaging detection system. Thapsigargin (TG, 2.5 µM) served as a positive control for BiP induction. DTNB ASSAY: This assay determines the rate which a mucolytic agent can reduce a disulfide bond using 5,5-Dithiobis(2-nitrobenzoic acid). DTNB in various pH buffers and allows comparison of the kinetic rates of reducing agents. […] Max Abs412 was measured and then utilized to calculate the activity concentration.
The kinetics of disulfide bond reduction can be quantitative measured using 5,5′-dithiobis-(2-nitrobenzoic acid) (DTNB or Ellman's Reagent). DTNB contains an internal disulfide bond, which when reduced, gives rise to two molecules of TNB that can be monitored by […] at 412 nm.

Data set [2] is described as follows: Hydrogen peroxide incubation (oxygen free radical scavenging), read out by DTNB reduction. It counts as biochemical. The note with it: excess hydrogen peroxide, 60 second incubation; FIG. 10. The procedure: FIG. 10. Compound Ib was incubated with excess hydrogen peroxide to assess the ability of Compound Ib to scavenge oxygen free radicals. Following a 60 second incubation with hydrogen peroxide, the activity of Compound Ib was determined by its ability to reduce DTNB (Ellman's Reagent).

For a further data set, the system named is Balb-C mice. Description: BALF cellularity after pulmonary aspiration in Balb-C mice. The data set is classed as in vivo. The note with it: pulmonary aspiration (40 ul deposited dose), BALF at 4 and 24 hours post administration, all concentrations tested, FIG. 9. On the procedure: FIG. 9. Balb-C mice were administered Compound Ib at the indicated concentrations via pulmonary aspiration (40 ul deposited dose). Bronchoalveolar lavage fluid (BALF) was collected at 4 and 24 hours post administration and the total cellularity of the BALF was determined.

A short description of data set [3]: Elimination of inhaled 14C-labeled NAC from the lungs in animal studies. The note with it: inhaled or intranasal, 14C-labeled NAC administered by inhalation, animal studies (unpublished observation). It counts as in vivo. The text has this:
NAC, as a topical pulmonary therapeutic agent, is not optimal for the reduction of mucin disulfide bonds. […] For example, in the pH environment of the airway surface (measured in the range of pH 6.0 to 7.2 in CF and COPD airways), NAC exists only partially in its reactive state as a negatively charge thiolate (Jayaraman S, Song Y, Vetrivel L, Shankar L, Verkman A S. Noninvasive in vivo fluorescence measurement of airway-surface liquid depth, salt concentration, and pH. J Clin Invest. 2001; 107(3):317-24) (FIG. 3). […] The relatively low reducing activity at of NAC physiologic airway pH and a the short half-life of NAC on the lung surface provide an explanation for the lack of strong clinical evidence for effective mucus reduction in mucus obstructive diseases.

Experimental for Muc5B: Analysis of Muc5B reduction by western blot. Saliva was incubated with reducing agents at indicated concentrations for 30 min prior to agarose gel electrophoresis/western blot visualization of unreduced and reduced Muc5B. Both saliva and compounds were buffered to pH 6.5.
Quantitation of Muc5B reduction by western blot.
Saliva samples were aliquoted and incubated with the indicated concentrations of reducing agents (FIG. 4). After a 30 minute incubation, the reducing agents were quenched by the addition of a 10-fold molar excess of N-ethylmaliamide (NEM). The mucus samples were separated by agarose gel electrophoresis and analyzed by western blot.

`O[C@H](CS)[C@H](O)CS` (racemic) [DTT, dithiothreitol, reference compound]: the “concentration producing Muc5B (mucin) reduction by downward gel shift” value on Muc5B is reported as at least 3 mM. In data set [1], the “DTNB reducing kinetics as a function of pH” value (shortened to “DTNB reducing kinetics”) was “pH-dependent increase in DTNB reduction”.

With `O=C(O)CCP(CCC(=O)O)CCC(=O)O` [Compound Ib, 3,3′,3″-phosphinetriyltripropanoic acid], on Muc5B, the “potency of mucus (Muc5B) reduction relative to NAC and DTT” value is recorded as “more potent”; the “concentration producing Muc5B (mucin) reduction by downward gel shift” value is recorded as at least 1 mM. In addition, the “activity (ability to reduce DTNB) after incubation with hydrogen peroxide” value in data set [2] is reported as “decreased the activity”. Besides, in data set [1], the “reducing kinetic for DTNB reduction compared with NAC and DTT” value is recorded as “faster reducing kinetic”; the “DTNB reducing kinetics” value is listed as “pH-dependent increase in reducing activity”. The “DTNB reduction kinetics as a function of reducing agent to DTNB ratio” value in data set [1] (increasing concentrations of reducing agent, fixed concentration of DTNB and pH (7.0), FIG. 2) is reported as “fastest reduction kinetics at all ratios of reducing agent to DTNB substrate”. For the same compound, in the data set on Balb-C mice, the “total cellularity of the BALF compared to vehicle” value is given as “did not increase BALF cellularity compared to the vehicle”.

For the compound `NCCP(c1ccccc1)c1ccccc1` [If, 2-(diphenylphosphino)ethanamine], in data set [1], the “reducing kinetic for DTNB reduction compared with NAC and DTT” value is given as “faster reducing kinetic”; the “DTNB reducing kinetics” value was “fastest reducing kinetic tested”.

In the case of `CC(=O)N[C@@H](CS)C(=O)O` [NAC, N-acetyl cysteine, reference compound], the “concentration producing Muc5B (mucin) reduction by downward gel shift” value on Muc5B is on record as above 100 mM. Also, the “DTNB reducing kinetics” value in data set [1] is listed as “pH-dependent increase in DTNB reduction”. In data set [3], this compound had a half-life of around 20 min.
